Assay results reported in ChEMBL document CHEMBL1201862, “PubChem BioAssay data set” (2004).
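Results reflect a 48-hour exposure of cells in 96-well plates to compound at five concentrations. At the GI50, growth is halved.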 Active and inactive are the calls of the source. Rule as the data show it: active = GI50 up to about 1.1 µM and inactive = higher.

How the values were obtained:
Experiment in all cases: growth of human tumour cells (NCI), 48 h
SK-MEL-2 = tested on: SK-MEL-2
HT-29 = tested on: HT-29
NCI-H522 = tested on: NCI-H522
HOP-92 = tested on: HOP-92
U-251 = tested on: U-251
DMS-114 = tested on: DMS-114
SK-MEL-5 = tested on: SK-MEL-5
XF498 = tested on: XF498
COLO 205 = tested on: COLO 205
K562 = tested on: K562
HCT-116 = tested on: HCT-116
OVCAR-4 = tested on: OVCAR-4
UACC-257 = tested on: UACC-257
SK-OV-3 = tested on: SK-OV-3
SF-539 = tested on: SF-539
SNB-19 = tested on: SNB-19
RPMI-8226 = tested on: RPMI-8226
UACC-62 = tested on: UACC-62
NCI-H226 = tested on: NCI-H226
DLD-1 = tested on: DLD-1
HOP-18 = tested on: HOP-18
NCI-H23 = tested on: NCI-H23
SN12C = tested on: SN12C
HCC 2998 = tested on: HCC 2998
NCI-H460 = tested on: NCI-H460
SW-620 = tested on: SW-620
KM12 = tested on: KM12
OVCAR-5 = tested on: OVCAR-5
M19-MEL = tested on: M19-MEL
SF-295 = tested on: SF-295
MOLT-4 = tested on: MOLT-4
HL-60 = tested on: HL-60
CCRF-CEM = tested on: CCRF-CEM
CAKI-1 = tested on: CAKI-1
IGROV-1 = tested on: IGROV-1
OVCAR-8 = tested on: OVCAR-8
MCF7 = tested on: MCF7
NCI/ADR-RES = tested on: NCI/ADR-RES
SK-MEL-28 = tested on: SK-MEL-28
OVCAR-3 = tested on: OVCAR-3
HOP-62 = tested on: HOP-62
LOX IMVI = tested on: LOX IMVI
A498 = tested on: A498
HCT-15 = tested on: HCT-15
EKVX = tested on: EKVX
SF-268 = tested on: SF-268
SNB-75 = tested on: SNB-75
UO-31 = tested on: UO-31
A549 = tested on: A549
786-0 = tested on: 786-0
SNB-78 = tested on: SNB-78
ACHN = tested on: ACHN
LXFL 529 = tested on: LXFL 529
KM-20L2 = tested on: KM-20L2
DMS-273 = tested on: DMS-273
TK-10 = tested on: TK-10
RXF 393 = tested on: RXF 393
Malme-3M = tested on: Malme-3M
SR = tested on: SR

Cc1ccc(N2C(=O)C3CSCN3C2=O)cc1 (stereo unspecified)
GI50 (SK-MEL-2): > 100 µM (inactive) | GI50 (HT-29): > 100 µM (inactive) | GI50 (NCI-H522): > 100 µM (inactive) | GI50 (HOP-92): > 100 µM (inactive) | GI50 (U-251): > 100 µM (inactive) | GI50 (DMS-114): > 100 µM (inactive) | GI50 (SK-MEL-5): > 100 µM (inactive) | GI50 (XF498): > 100 µM (inactive) | GI50 (COLO 205): > 100 µM (inactive) | GI50 (K562): > 100 µM (inactive) | GI50 (HCT-116): 2.46 µM (inactive) | GI50 (OVCAR-4): > 100 µM (inactive) | GI50 (UACC-257): > 100 µM (inactive) | GI50 (SK-OV-3): > 100 µM (inactive) | GI50 (SF-539): > 100 µM (inactive) | GI50 (SNB-19): > 100 µM (inactive) | GI50 (RPMI-8226): > 100 µM (inactive) | GI50 (UACC-62): > 100 µM (inactive) | GI50 (NCI-H226): > 100 µM (inactive) | GI50 (DLD-1): > 100 µM (inactive) | GI50 (HOP-18): > 100 µM (inactive) | GI50 (NCI-H23): > 100 µM (inactive) | GI50 (SN12C): > 100 µM (inactive) | GI50 (HCC 2998): > 100 µM (inactive) | GI50 (NCI-H460): > 100 µM (inactive) | GI50 (SW-620): > 100 µM (inactive) | GI50 (KM12): > 100 µM (inactive) | GI50 (OVCAR-5): > 100 µM (inactive) | GI50 (M19-MEL): > 100 µM (inactive) | GI50 (SF-295): > 100 µM (inactive) | GI50 (MOLT-4): > 100 µM (inactive) | GI50 (HL-60): > 100 µM (inactive) | GI50 (CCRF-CEM): > 100 µM (inactive) | GI50 (CAKI-1): > 100 µM (inactive) | GI50 (IGROV-1): > 100 µM (inactive) | GI50 (OVCAR-8): > 100 µM (inactive) | GI50 (MCF7): > 100 µM (inactive) | GI50 (NCI/ADR-RES): > 100 µM (inactive) | GI50 (SK-MEL-28): 15.8 µM (inactive) | GI50 (OVCAR-3): > 100 µM (inactive) | GI50 (HOP-62): > 100 µM (inactive) | GI50 (LOX IMVI): > 100 µM (inactive) | GI50 (A498): > 100 µM (inactive) | GI50 (HCT-15): > 100 µM | GI50 (EKVX): > 100 µM (inactive) | GI50 (SF-268): > 100 µM (inactive) | GI50 (SNB-75): > 100 µM (inactive) | GI50 (UO-31): > 100 µM (inactive) | GI50 (A549): > 100 µM (inactive)

O=C1NCC2=C1CCC1c3ccccc3CCN21 (stereo unspecified)
GI50 (786-0): > 100 µM (inactive) | GI50 (SNB-78): > 100 µM (inactive) | GI50 (SK-MEL-2): > 100 µM (inactive) | GI50 (HT-29): > 100 µM (inactive) | GI50 (NCI-H522): > 100 µM (inactive) | GI50 (HOP-92): > 100 µM (inactive) | GI50 (ACHN): > 100 µM (inactive) | GI50 (U-251): > 100 µM (inactive) | GI50 (DMS-114): > 100 µM (inactive) | GI50 (SK-MEL-5): > 100 µM (inactive) | GI50 (XF498): > 100 µM (inactive) | GI50 (COLO 205): > 100 µM (inactive) | GI50 (HCT-116): > 100 µM (inactive) | GI50 (UACC-257): > 100 µM (inactive) | GI50 (SK-OV-3): > 100 µM (inactive) | GI50 (SF-539): > 100 µM (inactive) | GI50 (SNB-19): > 100 µM (inactive) | GI50 (LXFL 529): > 100 µM (inactive) | GI50 (UACC-62): > 100 µM (inactive) | GI50 (NCI-H226): > 100 µM (inactive) | GI50 (DLD-1): > 100 µM (inactive) | GI50 (NCI-H23): > 100 µM (inactive) | GI50 (SN12C): > 100 µM (inactive) | GI50 (HCC 2998): > 100 µM (inactive) | GI50 (NCI-H460): > 100 µM (inactive) | GI50 (SW-620): > 100 µM (inactive) | GI50 (KM12): > 100 µM (inactive) | GI50 (OVCAR-5): > 100 µM (inactive) | GI50 (KM-20L2): > 100 µM (inactive) | GI50 (M19-MEL): > 100 µM (inactive) | GI50 (SF-295): > 100 µM (inactive) | GI50 (MOLT-4): > 100 µM (inactive) | GI50 (HL-60): > 100 µM (inactive) | GI50 (CCRF-CEM): > 100 µM (inactive) | GI50 (CAKI-1): > 100 µM (inactive) | GI50 (IGROV-1): > 100 µM (inactive) | GI50 (OVCAR-8): > 100 µM (inactive) | GI50 (SK-MEL-28): > 100 µM (inactive) | GI50 (OVCAR-3): > 100 µM (inactive) | GI50 (LOX IMVI): > 100 µM (inactive) | GI50 (A498): > 100 µM (inactive) | GI50 (DMS-273): > 100 µM (inactive) | GI50 (HCT-15): > 100 µM | GI50 (EKVX): > 100 µM (inactive) | GI50 (TK-10): > 100 µM (inactive) | GI50 (SF-268): > 100 µM (inactive) | GI50 (SNB-75): > 100 µM (inactive) | GI50 (RXF 393): > 100 µM (inactive) | GI50 (Malme-3M): > 100 µM (inactive) | GI50 (UO-31): > 100 µM (inactive) | GI50 (SR): > 100 µM (inactive) | GI50 (A549): > 100 µM (inactive)
